Measurements reported in US20130197085A1, “AGENT AND METHOD FOR STABILIZING MEMBRANE PROTEIN” (priority 2007, published 2013).

Key:
D482G BSEP [1] = biological target: T1, D482G BSEP (Homo sapiens, UniProt O95342, D482G/L339V); experiment: Transcellular transport assay of [^3H] TC across MDCKII monolayer; assay type: cell-based; conditions: 24 hours
T1 construct: expressed in transfected cells; host or cells: MDCKII cells infected with recombinant adenovirus
Protocol: (§1) MDCKII cells were dispersed on a Transwell membrane insert (pore size: […]; Falcon) of a 24-well plate, resulting in a density of 1.5×10^5 cells/insert. Two days after the culture, the confluent cells were infected with recombinant adenoviruses having the cDNAs of wild-type, E297G and D482G BSEPs, and GFP, at 50 MOI. […] After completion of the treatment for 24 hours, a transcellular transport assay was carried out (see Mita et al., Am J Physiol Gastrointest Liver Physiol 290: G550-G556, 2006).
(§2) The apparent efflux clearance across the apical membrane (PSapical) was calculated by dividing a steady rate of the transcellular transport of [^3H] TC for 2 hours by the intracellular concentration of the [^3H] TC at the termination of the experiment (2 hours later).

E297G BSEP [2] = biological target: T2, E297G BSEP (Homo sapiens, UniProt O95342, E297G/L339V); experiment: as above; assay type: cell-based; conditions: 24 hours
T2 construct: expressed in transfected cells; host or cells: MDCKII cells infected with recombinant adenovirus
T2 sequence (O95342 whole entry E297G/L339V): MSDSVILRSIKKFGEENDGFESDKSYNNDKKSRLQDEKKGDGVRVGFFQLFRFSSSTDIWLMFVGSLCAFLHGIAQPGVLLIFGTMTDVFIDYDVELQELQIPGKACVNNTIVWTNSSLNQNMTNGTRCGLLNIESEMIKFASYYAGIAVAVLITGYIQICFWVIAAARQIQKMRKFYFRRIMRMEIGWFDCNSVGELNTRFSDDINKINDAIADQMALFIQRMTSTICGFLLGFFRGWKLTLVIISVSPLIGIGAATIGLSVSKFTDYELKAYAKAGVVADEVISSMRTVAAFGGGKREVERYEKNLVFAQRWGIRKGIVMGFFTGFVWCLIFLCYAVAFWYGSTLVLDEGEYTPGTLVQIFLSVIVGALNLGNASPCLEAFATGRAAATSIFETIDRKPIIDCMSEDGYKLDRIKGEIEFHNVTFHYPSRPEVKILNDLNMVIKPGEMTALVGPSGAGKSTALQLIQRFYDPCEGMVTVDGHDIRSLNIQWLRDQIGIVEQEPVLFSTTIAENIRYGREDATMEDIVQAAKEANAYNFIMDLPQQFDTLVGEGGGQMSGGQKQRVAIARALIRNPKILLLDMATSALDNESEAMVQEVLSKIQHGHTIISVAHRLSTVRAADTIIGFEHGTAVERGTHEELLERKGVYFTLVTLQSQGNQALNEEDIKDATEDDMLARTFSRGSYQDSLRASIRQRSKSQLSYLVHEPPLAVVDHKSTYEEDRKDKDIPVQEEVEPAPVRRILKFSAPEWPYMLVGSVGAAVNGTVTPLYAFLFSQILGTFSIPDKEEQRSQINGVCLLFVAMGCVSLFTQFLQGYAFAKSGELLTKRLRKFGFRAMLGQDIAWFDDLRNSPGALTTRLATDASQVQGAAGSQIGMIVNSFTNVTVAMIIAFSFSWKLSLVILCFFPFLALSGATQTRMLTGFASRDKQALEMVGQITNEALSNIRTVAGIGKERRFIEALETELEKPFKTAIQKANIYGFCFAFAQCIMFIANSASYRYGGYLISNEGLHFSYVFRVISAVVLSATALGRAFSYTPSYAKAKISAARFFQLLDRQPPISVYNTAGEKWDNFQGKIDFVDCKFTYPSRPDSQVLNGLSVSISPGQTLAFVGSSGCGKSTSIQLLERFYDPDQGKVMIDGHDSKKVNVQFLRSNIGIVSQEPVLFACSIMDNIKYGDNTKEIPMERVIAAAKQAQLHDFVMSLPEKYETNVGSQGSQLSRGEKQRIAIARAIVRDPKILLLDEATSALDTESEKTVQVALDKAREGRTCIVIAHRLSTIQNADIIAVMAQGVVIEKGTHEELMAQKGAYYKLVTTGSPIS
Protocol: as §1, §2

wild-type BSEP [3] = biological target: T3, wild-type BSEP (Homo sapiens, UniProt O95342, L339V); experiment: as above; assay type: cell-based; conditions: 24 hours
T3 construct: expressed in transfected cells; host or cells: MDCKII cells infected with recombinant adenovirus
T3 sequence (O95342 whole entry L339V): as the sequence (O95342 whole entry E297G/L339V) above, with G297E counted along it
Protocol: as §1, §2

[4] = system: MDCKII cells expressing GFP; experiment: Transcellular transport assay of [^3H] TC across MDCKII monolayer, GFP control cells; assay type: cell-based; conditions: 24 hours
Protocol: as §1, §2

D482G BSEP [5] = biological target: T1, D482G BSEP; experiment: Cell surface biotinylation method, expression on the surface of MDCKII cells; assay type: cell-based; conditions: 1 mM, 24 hours
Protocol: (§3) MDCKII cells were dispersed on a 6-well plate, resulting in a density of 2.5×10^5 cells/well. After completion of the culture for 24 hours, the confluent cells were infected with recombinant adenoviruses having the cDNAs of wild-type, E297G and D482G BSEPs, and GFP, at 200 MOI. After completion of the infection, the cells were cultured for 24 hours. […] After completion of the treatment for 24 hours, the cells were biotinylated (see Hayashi et al., Hepatology, 41: 916-924, 2005).

E297G BSEP [6] = biological target: T2, E297G BSEP; experiment: as above; assay type: cell-based; conditions: 1 mM, 24 hours
Protocol: as §3

[7] = system: intrinsic dipeptidyl peptidase IV (DPPIV); experiment: as above; assay type: cell-based; conditions: 1 mM, 24 hours
Protocol: as §3

wild-type BSEP [8] = biological target: T3, wild-type BSEP; experiment: as above; assay type: cell-based; conditions: 1 mM, 24 hours
Protocol: as §3

D482G BSEP [9] = biological target: T1, D482G BSEP; experiment: Brefeldin A washing experiment, maturation of BSEP in MDCKII cells; assay type: cell-based; conditions: 1 mM 4PBA
Protocol: (§4) MDCKII cells were dispersed on a 6-well plate, resulting in a density of 2.5×10^5 cells/well. After completion of the culture for 24 hours, the confluent cells were infected with recombinant adenoviruses having the cDNAs of wild-type, E297G and D482G BSEPs, and GFP, at 200 MOI. After completion of the infection, the cells were cultured for 12 hours. Thereafter, in order to inhibit the transport of BSEP from the endoplasmic reticulum to the Golgi body, the cells were treated in the presence or absence of 5 μg/ml brefeldin A (Sigma). After completion of the treatment for 2 hours, in the presence or absence of brefeldin A, 4PBA was added to the cells to a concentration of 1 mM. At the time point of 12 hours after the 4PBA treatment, a crude membrane fraction was prepared. The obtained fraction was separated by 6% SDS-PAGE, and Western blotting was then carried out.
(§5) The promotion of a process of converting an immature BSEP existing in the endoplasmic reticulum to a mature BSEP existing on the cell surface is considered to be a post-translation mechanism that may be associated with an increase in the expression of the mature BSEP on the cell surface. In order to evaluate the effects of the 4PBA treatment on the maturation of a BSEP, the transport of the BSEP from the endoplasmic reticulum to the Golgi body was inhibited with brefeldin A (BFA), the BFA was then washed out, and the maturation rate of the BSEP on MDCKII cells was measured. BFA is an agent for inducing the accumulation of an immature BSEP existing in the endoplasmic reticulum (FIGS. 5A and 5B). The maturation rate was evaluated by washing out such BFA and then measuring an increased amount of the band density of a mature BSEP over time according to Western blotting. The band density of the mature BSEP was calculated by subtracting the band density at 0 (zero) hour from the band density at each measurement time (FIG. 5B). […] In addition, in the case of mature BSEPs, the expression levels were not changed until 3 hours after the washing out of BFA, regardless of the presence or absence of 4PBA. […] At the time point 8 hours after the washing out of BFA, the MDCKII cells treated with 4PBA were compared with the MDCKII cells that had not been treated with 4PBA. As a result, the expression level of a mature BSEP in the MDCKII cells treated with 4PBA was higher than the same expression level in the MDCKII cells that had not been treated with 4PBA.

E297G BSEP [10] = biological target: T2, E297G BSEP; experiment: as above; assay type: cell-based; conditions: 1 mM 4PBA
Protocol: as §4, §5

wild-type BSEP [11] = biological target: T3, wild-type BSEP; experiment: as above; assay type: cell-based; conditions: 1 mM 4PBA
Protocol: as §4, §5

CFTRΔF508 = CFTRΔF508 (Homo sapiens, UniProt P13569, DEL508-508); conditions: Non-Patent Document 2; cited from earlier work
Chain of CFTRΔF508 (P13569 with tags, fused parts or gaps DEL508-508): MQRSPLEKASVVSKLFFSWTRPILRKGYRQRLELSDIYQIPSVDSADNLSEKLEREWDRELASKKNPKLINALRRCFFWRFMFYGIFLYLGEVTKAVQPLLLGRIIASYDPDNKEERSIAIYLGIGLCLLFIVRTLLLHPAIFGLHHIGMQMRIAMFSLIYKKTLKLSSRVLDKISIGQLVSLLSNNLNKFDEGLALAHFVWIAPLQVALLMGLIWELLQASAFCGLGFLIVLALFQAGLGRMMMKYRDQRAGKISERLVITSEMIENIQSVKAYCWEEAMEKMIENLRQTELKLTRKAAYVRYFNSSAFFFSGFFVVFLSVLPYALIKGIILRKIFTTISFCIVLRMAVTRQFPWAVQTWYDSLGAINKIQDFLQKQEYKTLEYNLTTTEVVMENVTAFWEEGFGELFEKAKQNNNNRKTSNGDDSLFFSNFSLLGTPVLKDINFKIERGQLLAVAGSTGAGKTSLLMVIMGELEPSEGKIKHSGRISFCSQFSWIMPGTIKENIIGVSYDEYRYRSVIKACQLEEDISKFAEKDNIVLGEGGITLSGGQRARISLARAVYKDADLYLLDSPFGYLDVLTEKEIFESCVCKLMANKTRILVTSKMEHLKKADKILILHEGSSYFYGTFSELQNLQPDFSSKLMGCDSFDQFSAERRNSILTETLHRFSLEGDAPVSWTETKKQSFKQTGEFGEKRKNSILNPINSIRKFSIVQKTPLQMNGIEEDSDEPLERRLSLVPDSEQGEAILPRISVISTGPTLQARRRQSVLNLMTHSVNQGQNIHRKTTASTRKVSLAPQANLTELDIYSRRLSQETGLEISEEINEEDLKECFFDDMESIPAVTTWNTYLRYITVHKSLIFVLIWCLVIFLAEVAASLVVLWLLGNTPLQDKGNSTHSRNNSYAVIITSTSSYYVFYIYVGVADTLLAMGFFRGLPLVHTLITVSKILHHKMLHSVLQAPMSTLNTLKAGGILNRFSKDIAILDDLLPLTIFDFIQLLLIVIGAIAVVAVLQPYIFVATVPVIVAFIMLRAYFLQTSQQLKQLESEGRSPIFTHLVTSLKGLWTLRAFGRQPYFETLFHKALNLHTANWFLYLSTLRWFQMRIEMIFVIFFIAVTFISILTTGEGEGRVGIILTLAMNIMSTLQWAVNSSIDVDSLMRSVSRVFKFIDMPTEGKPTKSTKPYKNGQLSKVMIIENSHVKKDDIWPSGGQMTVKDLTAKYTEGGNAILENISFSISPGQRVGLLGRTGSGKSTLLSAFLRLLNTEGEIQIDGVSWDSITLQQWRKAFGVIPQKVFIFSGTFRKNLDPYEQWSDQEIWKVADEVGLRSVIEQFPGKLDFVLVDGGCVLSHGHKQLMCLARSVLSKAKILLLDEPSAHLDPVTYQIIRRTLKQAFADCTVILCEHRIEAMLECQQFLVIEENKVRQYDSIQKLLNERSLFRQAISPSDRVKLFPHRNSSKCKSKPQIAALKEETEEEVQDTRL

[12] = 1 mM, PSapical minus PSapical of GFP cells
[13] = 8 hours after the washing out of BFA
[14] = immediately after the washing out of BFA (hour 0)

T1 sequence (O95342 whole entry L339V/D482G): as the sequence (O95342 whole entry E297G/L339V) above, with G297E, D482G counted along it

O=C(O)CCCc1ccccc1 [4PBA, 4-phenylbutyric acid]
efflux of [^3H] TC from the apical side to the base side (D482G BSEP [1]; 1 mM, MDCKII monolayer): did not influence | efflux of [^3H] TC from the base side to the apical side, increase (D482G BSEP [1]; 1 mM, MDCKII monolayer): 3 times | BSEP-dependent PSapical value (PSapical, BSEP), increase (D482G BSEP [1]; [12]): 2.8 times | PSapical value (D482G BSEP [1]; 4PBA treatment 1 mM): increased | efflux of [^3H] TC from the apical side to the base side (E297G BSEP [2]; 1 mM, MDCKII monolayer): did not influence | efflux of [^3H] TC from the base side to the apical side, increase (E297G BSEP [2]; 1 mM, MDCKII monolayer): 2.5 times | BSEP-dependent PSapical value (PSapical, BSEP), increase (E297G BSEP [2]; [12]): 3.0 times | PSapical value (E297G BSEP [2]; 4PBA treatment 1 mM): increased | efflux of [^3H] TC from the apical side to the base side (wild-type BSEP [3]; 1 mM, MDCKII monolayer): did not influence | efflux of [^3H] TC from the base side to the apical side, increase (wild-type BSEP [3]; 1 mM, MDCKII monolayer): 1.5 times | BSEP-dependent PSapical value (PSapical, BSEP), increase (wild-type BSEP [3]; [12]): 1.7 times | PSapical value (wild-type BSEP [3]; 4PBA treatment 1 mM): increased | efflux of [^3H] TC from the apical side to the base side ([4]; 1 mM): did not influence | efflux of [^3H] TC from the base side to the apical side ([4]; 1 mM): such effects were not observed | PSapical value ([4]; 4PBA treatment 1 mM): no changes | expression level on the cell surface, increase (D482G BSEP [5]): 2.6 times | expression level on the cell surface, increase (E297G BSEP [6]): 3.1 times | expression of intrinsic DPPIV [7]: not influenced | expression level on the cell surface, increase (wild-type BSEP [8]): 1.8 times | expression level of mature BSEP, 4PBA-treated vs not treated cells (D482G BSEP [9]; [13]): higher | expression level of immature BSEP in the endoplasmic reticulum, with vs without 4PBA (D482G BSEP [9]; [14]): almost the same | expression level of mature BSEP, 4PBA-treated vs not treated cells (E297G BSEP [10]; [13]): higher | expression level of immature BSEP in the endoplasmic reticulum, with vs without 4PBA (E297G BSEP [10]; [14]): almost the same | expression level of mature BSEP, 4PBA-treated vs not treated cells (wild-type BSEP [11]; [13]): higher | expression level of immature BSEP in the endoplasmic reticulum, with vs without 4PBA (wild-type BSEP [11]; [14]): almost the same | expression of CFTRΔF508 on the cell membrane (CFTRΔF508): recovers its expression on the cell membrane
